Measured values published in PubChem BioAssay AID720603 (Broad Institute, 2013).
Records with an inconclusive call do not appear.

Test system: C2C12 mouse myoblast viability, CellTiter-Glo ATP, 8-48 h
Test: C2C12 myoblast ATP-based viability loss, dose response, cytotoxicity control for HRAS target identification, cell-based, CellTiter-Glo ATP luminescence, 8/24/48 h, dry powder (AID 720603)

SMILES | AC50 (measured here: 8 h treatment) | AC50 (measured here: 24 h treatment) | AC50 (measured here: 48 h treatment)
CC(C)(C)OC(=O)NCCOCCOCCOc1ccc(N(C(=O)CCl)C(C(=O)NCCc2ccccc2)c2cccs2)cc1Cl (stereo unspecified) | 1380 nM | 161 nM | 388 nM
COC(=O)c1ccc([C@@H]2c3[nH]c4ccccc4c3C[C@@H](C(=O)OC)N2C(=O)CCl)cc1 | 597 nM | 21.2 nM | 80.6 nM
C#CCCCC(=O)NCCOCCOCCOc1ccc(N(C(=O)CCl)C(C(=O)NCCc2ccccc2)c2cccs2)cc1Cl (stereo unspecified) |  | 1330 nM | 2620 nM
COc1ccc(N(C(=O)CCl)C(C(=O)NCCc2ccccc2)c2cccs2)cc1Cl (stereo unspecified) | 17800 nM | 108 nM | 311 nM
